The values that follow come from patent publication US7144856B2, “Inhibitors of dipeptidyl peptidase I” (Probiodrug AG, priority 2001, dated 2006).

Counter-ions that a name gives are not always drawn.

Data set [1] addresses cathepsin B (Homo sapiens, UniProt P07858). As to the kind of experiment: cross-reactivity against cathepsin B, IC50. The settings on record: n.i. = no inhibition; read-out: IC50 Cath. B. The class given is biochemical. On the procedure: (§1) Selected compounds, based on the general formula (II) below, were tested concerning their inhibitory potential against DP I and for their cross-reactivity against three more cysteine proteases, namely cathepsin B, H, L and another dipeptidyl peptidase, dipeptidyl peptidase IV (DP IV).

Data set [2] has as its target cathepsin L (Homo sapiens, UniProt P07711). As to the kind of experiment: cross-reactivity against cathepsin L, IC50. Type of data set: biochemical. The following applies: n.i. = no inhibition; read-out: IC50 Cath. L. On the procedure: as §1
The target in data set [3] is T1, DP I (Rattus norvegicus, UniProt P80067).
T1 construct: purchased Qiagen
The data set can be described thus: determination of second order rate constant kinact/Ki for DP I. Type of data set: biochemical. The settings on record: substrate Gly-Arg-pNA 1 mM and 0.5 mM. On the procedure: For the Ki-value determination a UV-spectrophotometer (Lambda 20, PerkinElmer, Überlingen, Germany) was used. The reaction was monitored via the p-nitroaniline released from the substrate (Gly-Arg-pNA) at λ=390 nm. DP I (1 U/mg, assay condition: Tagzyme handbook, Qiagen, Hilden, Germany) was diluted in MES-buffer (1:1000) and preincubated and activated for 30 min on crashed ice. The reaction mixture consists: 500 μl stock solution MES-buffer, 500 μl HCl*Gly-L-Arg-pNA, 250 μl inhibitor, 50 μl DP I. In order to calculate the second order rate constant (kinact/Ki) two substrate concentrations (1 mM and 0.5 mM in the incubation mixture) were combined with 6 inhibitor concentrations (5*10^−7 M to 3*10^−8 M in the assay). From the product-time-course the observed first order rate constant was determined.
Plotting 1/kobs versus substrate concentration allows the calculation of the real first order rate constant of inactivation for each inhibitor concentration at [S]=0.
Based on this equation Ki and kinact can be determined.

Data set [4] addresses T2, cathepsin H (Homo sapiens, UniProt P09668).
T2 sequence (P09668 98-335): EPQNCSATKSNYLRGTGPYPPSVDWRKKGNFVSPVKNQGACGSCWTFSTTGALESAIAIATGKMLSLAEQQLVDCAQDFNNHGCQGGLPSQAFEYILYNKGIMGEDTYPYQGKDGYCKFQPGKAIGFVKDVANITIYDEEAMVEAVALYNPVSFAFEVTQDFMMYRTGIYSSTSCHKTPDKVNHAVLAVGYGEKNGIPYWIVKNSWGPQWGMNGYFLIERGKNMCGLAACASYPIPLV
The data set can be described thus: cross-reactivity against cathepsin H, IC50. Type of data set: biochemical. The settings on record: n.i. = no inhibition; for IC50: read-out: IC50 Cath. H. On the procedure:
as §1

Data set [5] deals with dipeptidyl peptidase IV (DP IV) (Homo sapiens, UniProt P27487). The data set can be described thus: cross-reactivity against dipeptidyl peptidase IV, IC50. Type of data set: biochemical. The settings on record: n.i. = no inhibition. On the procedure: as §1
Sequence of dipeptidyl peptidase IV (DP IV) (P27487 whole entry, species assumed): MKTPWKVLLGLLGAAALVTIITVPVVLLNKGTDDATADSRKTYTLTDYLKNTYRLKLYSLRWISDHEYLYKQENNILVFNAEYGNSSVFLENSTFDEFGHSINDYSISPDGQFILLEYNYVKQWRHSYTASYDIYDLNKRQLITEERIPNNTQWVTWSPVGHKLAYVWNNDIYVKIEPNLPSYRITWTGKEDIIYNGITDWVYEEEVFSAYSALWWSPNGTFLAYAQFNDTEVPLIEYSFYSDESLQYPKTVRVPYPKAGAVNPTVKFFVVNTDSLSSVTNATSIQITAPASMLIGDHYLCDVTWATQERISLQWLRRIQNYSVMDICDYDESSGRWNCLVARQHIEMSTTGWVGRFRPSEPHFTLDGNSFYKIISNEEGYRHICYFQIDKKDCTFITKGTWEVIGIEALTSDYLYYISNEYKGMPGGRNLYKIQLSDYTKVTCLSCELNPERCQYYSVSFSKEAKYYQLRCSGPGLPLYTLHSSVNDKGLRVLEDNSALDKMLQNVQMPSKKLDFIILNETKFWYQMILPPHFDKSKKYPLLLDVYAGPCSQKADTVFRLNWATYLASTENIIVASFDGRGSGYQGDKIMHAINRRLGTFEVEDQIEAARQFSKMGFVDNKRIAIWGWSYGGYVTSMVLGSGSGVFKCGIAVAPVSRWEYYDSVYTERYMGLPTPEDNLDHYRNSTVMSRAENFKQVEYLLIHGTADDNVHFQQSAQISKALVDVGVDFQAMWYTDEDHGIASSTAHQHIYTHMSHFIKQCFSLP
The subject of data set [6] is Hep-G2 (human hepatocyte cell line). The data set can be described thus: cytotoxicity assay, Hep-G2 cells. Type of data set: cell-based. The settings on record: 24 hours incubation. On the procedure: (§2) The toxicological potential of the compounds provided therein against murine cell lines is different from their toxicological potential against human cell lines. Selected compounds, based on the general formula (II) above, were tested concerning their cytotoxicological potential against the two cell-lines, L-929 (murine fibroblast cell line) and Hep-G2 (human hepatocyte cell line) cells.
(§3) HEP-G2, a human hepatocyte cell line (ACC180) and L-929, a mouse fibroplast cell line (ACC2) were grown in RPMI 1604 with 10% fetal bovine serum and 60 μg/ml gentamycin.
(§4) All cultures were fed every 2–3 days and incubated in an humified chamber at 37° C. and 5% CO2. For determining the cytotoxicity of different DPI-inhibitors, we used the CytoTox96™ Non-radioactive Cytotoxicity Assay (Promega, Madison, Wis., USA). HEP-G2 (30000 cells per well) and L-929 (20000 cells per well) were placed in 96 well plates in RPMI 1604 with 10% fetal bovine serum and grown for 24 hours. The cells were then incubated with various concentrations of different DPI-inhibitors for 24 hours in RPMI 1604 with 10% fetal bovine serum. One hour after addition of MTS-solution, the reaction was stopped by adding stop-solution of Promega. The absorbance was measured at 490 nm with a spectrophotometer. All experiments were performed twice simultaneously in three wells.

The test system of data set [7] is L-929 (murine fibroblast cell line). As to the kind of experiment: cytotoxicity assay, L-929 cells. Type of data set: cell-based. The following applies: 24 hours incubation. As for the experimental part:
as §2, §3, §4

Data set [8] concerns the target T3, DP I (Rattus norvegicus, UniProt P80067).
T3 sequence (P80067 with tags, fused parts or gaps): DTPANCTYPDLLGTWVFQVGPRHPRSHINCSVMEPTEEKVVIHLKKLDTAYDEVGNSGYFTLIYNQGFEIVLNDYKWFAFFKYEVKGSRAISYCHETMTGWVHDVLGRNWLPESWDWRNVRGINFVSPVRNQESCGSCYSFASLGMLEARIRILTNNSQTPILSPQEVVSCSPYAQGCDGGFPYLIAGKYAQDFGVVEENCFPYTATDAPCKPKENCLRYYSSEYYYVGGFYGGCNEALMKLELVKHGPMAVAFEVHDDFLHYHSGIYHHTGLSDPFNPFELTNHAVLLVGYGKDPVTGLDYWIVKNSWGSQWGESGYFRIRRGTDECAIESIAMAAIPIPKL
The settings on record: background, literature; cited from earlier work.

Sequence of cathepsin L (P07711 114-333): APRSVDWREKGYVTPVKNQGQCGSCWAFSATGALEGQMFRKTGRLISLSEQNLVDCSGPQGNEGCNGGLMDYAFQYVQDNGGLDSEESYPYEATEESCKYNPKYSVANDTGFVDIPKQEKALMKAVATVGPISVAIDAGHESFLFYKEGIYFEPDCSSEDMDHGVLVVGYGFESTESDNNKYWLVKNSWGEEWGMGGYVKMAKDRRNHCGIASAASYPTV

With `Cc1ccc(C(=O)ONC(=O)[C@H](Cc2ccccc2)NC(=O)CN)cc1` [compound 12, TFA*H-Gly-L-Phe-NHO-Bz-p-CH3], the values for the IC50 in [1], in [2] and in [4] were 34 µM, 33.1 µM and 154 µM, respectively. For the same molecule, in [3], the kinact/KI stood at 19000 M⁻¹ s⁻¹. The “IC50 DP IV” value in data set [5] is reported as “n.i”.

With `NCC(=O)N[C@@H](Cc1ccccc1)C(=O)NOC(=O)c1ccccc1` [compound 11, TFA*H-Gly-L-Phe-NHO-Bz], the values for the IC50 in data set [1] and in [2] were 37.7 µM and 36.9 µM, respectively. For the same molecule, the kinact/KI in data set [3] was found to be 400000 M⁻¹ s⁻¹. In addition, the “IC50 Cath. H” value in [4] is given as “n.i”. Further, in [6], the “LD50 Hep-G2” value worked out at 0.8 mg/mL. Further, the “IC50 DP IV” value in data set [5] is “n.i”. Moreover, the “LD50 L-929” value in data set [7] worked out at 1.0 mg/mL.

As for `CC(=O)N[C@@H](CC(C)C)C(=O)N[C@@H](CC(C)C)C(=O)N[C@H](C=O)CCCNC(=N)N` [leupeptin, reference compound], in data set [8], the “inhibition of DP I (in words)” value is “weak inhibition”.

For the molecule `Cc1ccc(C(=O)ONC(=O)[C@H](Cc2ccccc2)NC(=O)CN)cc1` (as salt: TFA) [compound 12, TFA*H-Gly-L-Phe-NHO-Bz-p-CH3], the melting point was 98 to 101 °C.

Turning to `CNCC(=O)N[C@@H](Cc1ccccc1)C(=O)NOC(=O)c1ccccc1` [compound 14, TFA*H-Sar-L-Phe-NHO-Bz], the IC50 in [1] was found to be 41.8 µM; in data set [2], 4.61 µM; in data set [4], 205 µM. Moreover, the kinact/KI in data set [3] is 140000 M⁻¹ s⁻¹. Besides, in data set [5], the “IC50 DP IV” value was “n.i”.

On to `CC(C)C[C@H](NC(=O)[C@H]1O[C@@H]1C(=O)O)C(=O)NCCCCN=C(N)N` [E-64, reference compound], for which the “inhibition of DP I (in words)” value in data set [8] is “weak inhibition”.

For `CNCC(=O)N[C@@H](Cc1ccccc1)C(=O)NOC(=O)c1ccccc1` (as salt: TFA) [compound 14, TFA*H-Sar-L-Phe-NHO-Bz], the melting point fell in the range of 69 to 71 °C.

With `NCC(=O)N[C@@H](Cc1ccccc1)C(=O)NOC(=O)c1ccc([N+](=O)[O-])cc1` [compound 13, TFA*H-Gly-L-Phe-NHO-Bz-p-NO2], the values for the IC50 in data set [1], in data set [2] and in data set [4] were 5.31 µM, 7.32 µM and 34.7 µM, respectively. In addition, in data set [3], the inactivation efficiency (kinact/KI) came to 79000 M⁻¹ s⁻¹. For the same molecule, the “LD50 Hep-G2” value in data set [6] is 0.8 mg/mL. Also, the “IC50 DP IV” value in data set [5] is recorded as “n.i”. In addition, in data set [7], the “LD50 L-929” value turned out to be 2.3 mg/mL.

As for `CC(=O)ONC(=O)[C@H](Cc1ccccc1)NC(=O)CN` [compound 10, TFA*H-Gly-L-Phe-NHO-Ac], the IC50 is 117 µM in data set [1] and 156 µM in data set [2]. Further, the kinact/KI in data set [3] came out at 39000 M⁻¹ s⁻¹. Further, the “IC50 Cath. H” value in data set [4] is given as “n.i”. In addition, in [6], the “LD50 Hep-G2” value was 1.6 mg/mL. Also, in data set [5], the “IC50 DP IV” value is “n.i”. For the same molecule, the “LD50 L-929” value in [7] came to 4.3 mg/mL.

B1: stefin A (protein, UniProt P01040 1-98, looked up)
Cystatin-A: MIPGGLSEAKPATPEIQEIVDKVKPQLEEKTNETYGKLEAVQYKTQVVAGTNYYIKVRAGDNKYMHLKVFKSLPGQNEDLVLTGYQVDKNKDDELTGF
For the molecule B1, the “inhibition of DP I (in words)” value in data set [8] is listed as “Stronger reversible inhibitors”.

B2: chicken cystatin (protein, UniProt P01038 24-139, looked up)
Cystatin: SEDRSRLLGAPVPVDENDEGLQRALQFAMAEYNRASNDKYSSRVVRVISAKRQLVSGIKYILQVEIGRTTCPKSSGDLQSCEFHDEPEMAKYTTCTFVVYSIPWLNQIKLLESKCQ
Turning to B2, in data set [8], the “inhibition of DP I (in words)” value is given as “Stronger reversible inhibitors”.

In general, IC50 refers to the concentration needed to halve the response being measured. In general, kinact/KI refers to the maximal inactivation rate divided by the concentration that gives half of it. By melting point is commonly meant the temperature of the solid-liquid transition.
